Data set [1] deals with T1, RXRα (Homo sapiens, UniProt P19793).
T1 sequence (P19793 1-462): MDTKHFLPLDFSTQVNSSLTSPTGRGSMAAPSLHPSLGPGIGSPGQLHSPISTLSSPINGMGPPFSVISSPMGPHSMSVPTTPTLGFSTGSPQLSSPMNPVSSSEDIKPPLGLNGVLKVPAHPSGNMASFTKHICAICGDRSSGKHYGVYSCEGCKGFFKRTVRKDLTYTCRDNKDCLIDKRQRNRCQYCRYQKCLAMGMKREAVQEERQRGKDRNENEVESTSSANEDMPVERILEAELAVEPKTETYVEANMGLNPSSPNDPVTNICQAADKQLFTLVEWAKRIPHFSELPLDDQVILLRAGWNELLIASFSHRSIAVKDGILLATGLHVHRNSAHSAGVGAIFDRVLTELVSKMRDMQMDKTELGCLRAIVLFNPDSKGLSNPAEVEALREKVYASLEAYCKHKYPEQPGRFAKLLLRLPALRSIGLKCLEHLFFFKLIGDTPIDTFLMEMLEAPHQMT
Kind of data set: RXRα transactivation, agonist activity. The format is cell-based. An excerpt:
The binding and transactivation properties as RXR-receptor agonists can be determined by methods known in the art, such as, for example: Levin et al., Nature, 355, 359-61 (1992); Allenby et al., Proc. Natl. Acad. Sci., 90, 30-4 (1993).

In data set [2] the target is T1, RXRα. The data set can be described thus: cell-based.

One may read the IC50 as the point on the concentration scale where inhibition reaches its midpoint. A lower IC50 goes with higher potency. Usually AC50 stands for the concentration giving half of the maximal activity seen. Higher therefore signals activity only at high concentration. A word on the melting point: it is the temperature of the solid-liquid transition.

Each structure is given as a SMILES string.

Regarding `CC(C)(C)c1cc(-c2cc(C=CC(=O)O)ccc2O)c(OCc2ccccc2)c(C(C)(C)C)c1` [Compound 2, 3-(2′-Benzyloxy-3′,5′-di-tert-butyl-6-hydroxy-3-biphenylyl)acrylic Acid], at RXRα [1], the “RXRα transactivation Agonist AC50 (nM)” value is “inactive”. Further, on RXRα [2], the 50% inhibitory concentration (IC50) was 920 nM.

As for `CCCCCOc1c(-c2cc(C=CC(=O)O)ccc2O)cc(C(C)(C)C)cc1C(C)(C)C` [Compound 3, 3-(3′,5′-di-tert-Butyl-6-hydroxy-2′-pentyloxy-3-biphenylyl)acrylic Acid], the “RXRα transactivation Agonist AC50 (nM)” value at RXRα [1] was “inactive”. This compound gave an IC50 on RXRα [2] of 729 nM.

As for `CCCCCOc1cc2c(cc1-c1cc(C=CC(=O)O)ccc1OCOC)C(C)(C)CCC2(C)C` [Compound 9, 3-[3-(3-Pentyloxy-5,5,8,8-tetramethyl-5,6,7,8-tetrahydro-2-naphthyl)-4-methoxymethoxyphenyl]acrylic Acid], at RXRα [1], the “RXRα transactivation Agonist AC50 (nM)” value was “inactive”. Also, the midpoint of inhibition at RXRα [2], the IC50, lay at 631 nM.

For the compound `COCOc1ccc(C#CC(=O)O)cc1-c1cc2c(cc1C)C(C)(C)CCC2(C)C` [Compound 7, [4-Methoxymethoxy-3-(3,5,5,8,8-pentamethyl-5,6,7,8-tetrahydro-2-naphthyl)phenyl]propynoic Acid], on RXRα [1], half-maximal activity (AC50) was put at 32 nM. That is a double-digit nanomolar value.

In the case of `CC1(C)CCC(C)(C)c2cc(-c3cc(C=CC(=O)O)ccc3O)c(OCc3ccccc3)cc21` [Compound 6, 3-[3-(3-Benzyloxy-5,5,8,8-tetramethyl-5,6,7,8-tetrahydro-2-naphthyl)-4-hydroxyphenyl]acrylic Acid], the “RXRα transactivation Agonist AC50 (nM)” value at RXRα [1] was “inactive”. In addition, on RXRα [2], the midpoint of inhibition, the IC50, lay at 505 nM.

Take `COCOc1ccc(C=CC(=O)O)cc1-c1cc2c(cc1OCc1ccccc1)C(C)(C)CCC2(C)C` [Compound 5, 3-[3-(3-Benzyloxy-5,5,8,8-tetramethyl-5,6,7,8-tetrahydro-2-naphthyl)-4-methoxymethoxyphenyl]acrylic Acid]: the “RXRα transactivation Agonist AC50 (nM)” value at RXRα [1] was “inactive”. This compound also showed a 50% inhibitory concentration (IC50) against RXRα [2] of 4000 nM.

With `CCCOc1cc2c(cc1-c1cc(C=CC(=O)O)ccc1OCOC)C(C)(C)CCC2(C)C` [Compound 8, 3-[3-(3-Propyloxy-5,5,8,8-tetramethyl-5,6,7,8-tetrahydro-2-naphthyl)-4-methoxymethoxyphenyl]acrylic Acid], the “RXRα transactivation Agonist AC50 (nM)” value on RXRα [1] is “inactive”. On RXRα [2], this compound returned an IC50 of 1100 nM.

As to `COc1c(-c2cc(C=CC(=O)O)ccc2O)cc(C(C)(C)C)cc1C(C)(C)C` [Compound 4, 3-(3′,5′-di-tert-Butyl-6-hydroxy-2′-methoxy-3-biphenylyl)acrylic Acid], at RXRα [1], the activity was half-maximal at 165 nM (AC50).

In the case of `COc1c(-c2cccc(C=CC(=O)O)c2)cc(C(C)(C)C)cc1C(C)(C)C` [Compound 1, 3-(3′,5′-di-tert-Butyl-2′-methoxy-3-biphenylyl)acrylic Acid], half-maximal activity at RXRα [1] (AC50) was put at 384 nM.

In turn, `COCOc1c(-c2cccc(C=CC(=O)O)c2)ccc2c1C(C)(C)CCC2(C)C` gave a melting point of 188 to 189 °C.

(Values after patent US6632963B1, “Bicyclic aromatic compounds and pharmaceutical/cosmetic compositions comprised thereof” (Galderma Research & Development S.N.C., priority 1998, dated 2003).)
